These results are taken from ChEMBL document CHEMBL3228010, “Potential antitumor agents. 29. Quantitative structure-activity relationships for the antileukemic bisquaternary ammonium heterocycles” (J Med Chem, 1979).

Data set [1] in a line: Displacement of ethidium from poly[d(G-C)]-poly[d(G-C)] DNA (unknown origin) by fluorimetric method.
For data set [2], the system named is L1210. Nature of the data set: Antitumor activity against mouse L1210 cells […] in ip dosed C3H X DBA2 F1 hybrid mouse on day 0 and dosed at LD10 level once daily on days 1 to 5 assessed as increase in life span relative to control. The format is functional.
A short description of data set [3]: Displacement of ethidium from poly[d(A-T)]-poly[d(A-T)] DNA by fluorimetric method.
A short description of data set [4]: Lipophilic-hydrophilic balance, Rm of the compound by partition chromatography. Format: physicochemical.
The test system of data set [5] is Mus musculus. The data set can be described thus: Toxicity in ip dosed C3H X DBA2 F1 hybrid mouse […] with mouse L1210 cells on day 0 and dosed once daily on days 1 to 5 measured after 50 days. The format is organism-based. As to conditions: in vivo, 1200 h.
For data set [6], the species on record is Bos taurus. Nature of the data set: Displacement of ethidium from calf thymus DNA by fluorimetric method.
Data set [7] has as its system L1210. Nature of the data set: Antitumor activity against mouse L1210 cells […] in ip dosed C3H X DBA2 F1 hybrid mouse on day 0 and dosed once daily on days 1 to 5 assessed as increase in life span relative to control. The format is functional.

Regarding `Cc1cc(Nc2ccc(NC(=O)c3ccc(C(=O)Nc4ccc(C(=O)Nc5ccc[n+](C)c5)cc4)cc3)cc2)nc(N)n1.I.[I-]`, the C50 amounted to 0.49 µM in data set [1], 0.27 µM in data set [3] and 0.39 µM in data set [6]. For the same compound, in data set [2], the “log(ILSmax)” value is listed as 2. In addition, the Rm in data set [4] is reported as -0.3. The compound further came in with an LD10 in data set [5] of 19 mg/kg. Further, the D40 in data set [7] amounted to 10 mg/kg.
With `CC[n+]1ccc(Nc2ccc(NC(=O)c3ccc(Nc4cc[n+](CC)c5ccccc45)cc3)cc2)cc1.[Br-].[Br-]`, the C50 is 3.1 µM in data set [1], 0.19 µM in data set [3] and 2 µM in data set [6]. Moreover, in data set [2], the “log(ILSmax)” value came out at 2.07. The same compound displayed a Rm in data set [4] of 0.54. The same compound returned an LD10 in data set [5] of 15 mg/kg. Also, the D40 in data set [7] was found to be 2.8 mg/kg.
On to `C[n+]1cccc(NC(=O)c2ccc(NC(=O)c3ccc(C(=O)Nc4ccc(C(=O)Nc5ccc[n+](C)c5)cc4)c(N)c3)cc2)c1.Cc1ccc(S(=O)(=O)[O-])cc1.Cc1ccc(S(=O)(=O)[O-])cc1`, for which the C50 in data set [1] stood at 0.93 µM; in data set [3], 0.37 µM; in data set [6], 0.53 µM. Further, the “log(ILSmax)” value in data set [2] amounted to 2.17. The compound further gave a Rm in data set [4] of -0.63. In data set [5], this compound returned an LD10 of 20 mg/kg. Also, in data set [7], the D40 was 3.9 mg/kg.
`C[n+]1cccc(NC(=O)c2ccc(NC(=O)c3ccc(C(=O)Nc4ccc(Nc5cc[n+](C)c6ccc(N)cc56)cc4)cc3)cc2)c1.Cc1ccc(S(=O)(=O)[O-])cc1.Cc1ccc(S(=O)(=O)[O-])cc1`: the C50 in data set [1] is 0.34 µM; in data set [3], 0.22 µM; in data set [6], 0.31 µM. In addition, the “log(ILSmax)” value in data set [2] is on record as 1.95. The same compound showed a Rm in data set [4] of -0.47. In addition, the LD10 in data set [5] came out at 140 mg/kg. In data set [7], the D40 was determined as 22.1 mg/kg.
Consider `C[n+]1cccc(NC(=O)c2ccc(NC(=O)c3ccc(C(=O)Nc4ccc(C(=O)Nc5ccc[n+](C)c5)c5ccccc45)cc3)cc2)c1.Cc1ccc(S(=O)(=O)[O-])cc1.Cc1ccc(S(=O)(=O)[O-])cc1`, for which the C50 in data set [1] was found to be 2.6 µM; in data set [3] it was 2.3 µM; in data set [6], 2.2 µM. Further, the “log(ILSmax)” value in data set [2] is on record as 1.65. This compound came in with a Rm in data set [4] of 0.08. Further, in data set [5], the LD10 stood at 75 mg/kg. Also, in data set [7], the D40 came out at 72 mg/kg.
Regarding `C[n+]1ccc(Nc2ccc(NC(=O)c3ccc(Nc4cc[n+](C)c5ccc(Cl)cc45)cc3)cc2)cc1.Cc1ccc(S(=O)(=O)[O-])cc1.Cc1ccc(S(=O)(=O)[O-])cc1`, the C50 in data set [1] worked out at 1.76 µM; in data set [3], 0.24 µM; in data set [6], 0.79 µM. Further, in data set [2], the “log(ILSmax)” value was found to be 1.81. In data set [4], this compound registered a Rm of 0.57. In data set [5], the LD10 is 40 mg/kg. The D40 in data set [7] came out at 14 mg/kg.
As to `CCC[n+]1ccc(Nc2ccc(NC(=O)c3ccc(Nc4cc[n+](CCC)c5ccc(N)cc45)cc3)cc2)cc1.[Br-].[Br-]`, the C50 in data set [1] was determined as 1.1 µM; in data set [3], 0.1 µM; in data set [6], 0.68 µM. The “log(ILSmax)” value in data set [2] was 2.07. Moreover, the Rm in data set [4] stood at 0.46. Also, in data set [5], the LD10 was determined as 10 mg/kg. For the same compound, the D40 in data set [7] was found to be 1.8 mg/kg.
As for `C[n+]1ccc(-c2ccc(-c3ccc(-c4ccc(NC(=O)c5ccc(C(=O)Nc6ccc(-c7ccc(-c8ccc(-c9cc[n+](C)cc9)cc8)cc7)cc6)cc5)cc4)cc3)cc2)cc1.Cc1ccc(S(=O)(=O)[O-])cc1.Cc1ccc(S(=O)(=O)[O-])cc1`, the results for the C50 in data set [1], in data set [3] and in data set [6] were 1.15 µM, 0.4 µM and 0.55 µM, respectively. Moreover, in data set [2], the “log(ILSmax)” value came to 2.28. Moreover, the Rm in data set [4] was -0.3. The compound further yielded an LD10 in data set [5] of 110 mg/kg. The D40 in data set [7] came out at 22 mg/kg.
As for `C[n+]1cccc(NC(=O)c2ccc(NC(=O)c3ccc(C(=O)Nc4ccc(N/N=N/c5ccc(C(=N)N)cc5)cc4)cc3)cc2)c1.Cc1ccc(S(=O)(=O)O)cc1.Cc1ccc(S(=O)(=O)[O-])cc1`, the C50 in data set [1] came to 0.64 µM; in data set [3], 0.22 µM; in data set [6], 0.48 µM. In addition, in data set [2], the “log(ILSmax)” value is on record as 2.1. In data set [4], this compound gave a Rm of -0.77. Besides, the LD10 in data set [5] stood at 35 mg/kg. Moreover, the D40 in data set [7] came out at 6 mg/kg.
Consider `CCCC[n+]1cccc(C(=O)Nc2ccc(NC(=O)c3ccc(C(=O)Nc4ccc5c(ccc[n+]5CCCC)c4)cc3)cc2)c1.Cc1ccc(S(=O)(=O)[O-])cc1.Cc1ccc(S(=O)(=O)[O-])cc1`, for which the values for the C50 in data set [1], in data set [3] and in data set [6] were 4.2 µM, 2.1 µM and 2.5 µM, respectively. The “log(ILSmax)” value in data set [2] was 1.72. The same compound had a Rm in data set [4] of 0.65. Also, in data set [5], the LD10 amounted to 19 mg/kg. Also, in data set [7], the D40 turned out to be 12 mg/kg.
As for `C[n+]1cc(-c2ccc(NC(=O)c3ccc(Nc4cc[n+](C)c5ccccc45)cc3)cc2)c(N)nc1N.Cc1ccc(S(=O)(=O)[O-])cc1.Cc1ccc(S(=O)(=O)[O-])cc1`, the C50 in data set [1] turned out to be 2.73 µM; in data set [3] it was 0.22 µM; in data set [6] it was 1.24 µM. For the same compound, the “log(ILSmax)” value in data set [2] was found to be 2.27. In addition, the Rm in data set [4] is given as -0.01. This compound also came in with an LD10 in data set [5] of 20 mg/kg. For the same compound, the D40 in data set [7] amounted to 3.5 mg/kg.
As for `Br.C/C(=N\NC(=N)N)c1ccc(NC(=O)Nc2ccc(Nc3cc[n+](C)c4ccc(N)cc34)cc2)cc1.[Br-]`, the C50 in data set [1] was found to be 0.53 µM; in data set [3], 0.25 µM; in data set [6], 0.42 µM. In addition, the “log(ILSmax)” value in data set [2] worked out at 2.2. Also, the Rm in data set [4] was -0.15. This compound came in with an LD10 in data set [5] of 150 mg/kg. In data set [7], the D40 stood at 18.5 mg/kg.
In the case of `C[n+]1ccc(Nc2ccc(NC(=O)/C=C/c3ccc(Nc4cc[n+](C)c5ccccc45)cc3)cc2)cc1.[Br-].[Br-]`, the C50 was 0.71 µM in data set [1], 0.15 µM in data set [3] and 0.38 µM in data set [6]. Besides, the “log(ILSmax)” value in data set [2] was 2.22. For the same compound, the Rm in data set [4] is 0.28. This compound also displayed an LD10 in data set [5] of 22 mg/kg. Further, the D40 in data set [7] came out at 1.3 mg/kg.
For `C[n+]1cccc2ccc(NC(=O)c3ccc(NC(=O)c4ccc(C(=O)Nc5ccc6ccc[n+](C)c6c5)cc4)cc3)cc21.Cc1ccc(S(=O)(=O)[O-])cc1.Cc1ccc(S(=O)(=O)[O-])cc1`, the C50 in data set [1] was determined as 0.25 µM; in data set [3], 0.16 µM; in data set [6], 0.16 µM. In addition, the “log(ILSmax)” value in data set [2] amounted to 1.85. The compound further gave a Rm in data set [4] of -0.76. In data set [5], the LD10 stood at 34 mg/kg. Also, in data set [7], the D40 is 15 mg/kg.
Take `Br.C/C(=N\NC(=N)N)c1ccc(NC(=O)c2ccc(Nc3cc[n+](C)c4ccccc34)cc2)cc1.[Br-]`: the C50 in data set [1] is 1.04 µM; in data set [3] it was 0.39 µM; in data set [6], 0.78 µM. The “log(ILSmax)” value in data set [2] was found to be 1.91. The compound further had a Rm in data set [4] of -0.07. This compound came in with an LD10 in data set [5] of 33 mg/kg. Besides, the D40 in data set [7] stood at 13 mg/kg.
On to `C[n+]1ccc(-c2ccc(NC(=O)c3ccc(Nc4cc[n+](C)c5ccccc45)cc3)cc2)cc1.Cc1ccc(S(=O)(=O)[O-])cc1.Cc1ccc(S(=O)(=O)[O-])cc1`, for which the values for the C50 in data set [1], in data set [3] and in data set [6] were 3 µM, 0.3 µM and 0.89 µM, respectively. Further, the “log(ILSmax)” value in data set [2] is reported as 2.08. Moreover, the Rm in data set [4] was 0.33. For the same compound, the LD10 in data set [5] amounted to 15 mg/kg. In addition, in data set [7], the D40 stood at 2.2 mg/kg.
As for `C[n+]1ccc(Nc2ccc(NC(=O)c3ccc(Nc4cc[n+](C)c5cc([N+](=O)[O-])ccc45)cc3)cc2)cc1.Cc1ccc(S(=O)(=O)[O-])cc1.Cc1ccc(S(=O)(=O)[O-])cc1`, the C50 in data set [1] was determined as 1.3 µM; in data set [3] it was 0.2 µM; in data set [6], 0.69 µM. The “log(ILSmax)” value in data set [2] is given as 2.02. Also, the Rm in data set [4] is on record as 0.15. Further, in data set [5], the LD10 turned out to be 27 mg/kg. Further, in data set [7], the D40 came to 3 mg/kg.
As to `C[n+]1ccc(Nc2ccc(C(=O)Nc3ccc(Nc4cc[n+](C)c5ccccc45)cc3)cc2)cc1.Cc1ccc(S(=O)(=O)[O-])cc1.Cc1ccc(S(=O)(=O)[O-])cc1`, the C50 in data set [1] stood at 3 µM; in data set [3], 0.21 µM; in data set [6] it was 1.6 µM. Moreover, the “log(ILSmax)” value in data set [2] worked out at 2.29. Also, in data set [4], the Rm is on record as 0.27. The LD10 in data set [5] stood at 7.5 mg/kg. Moreover, in data set [7], the D40 came to 2.2 mg/kg.
As to `C(=C\c1ccc(-[n+]2ccccc2)cc1)/c1ccc(/C=C/c2ccc(-[n+]3ccccc3)cc2)cc1.Cc1ccc(S(=O)(=O)[O-])cc1.Cc1ccc(S(=O)(=O)[O-])cc1`, the C50 came out at 2.1 µM in data set [1], 0.2 µM in data set [3] and 0.76 µM in data set [6]. Besides, the “log(ILSmax)” value in data set [2] was determined as 1.95. This compound gave a Rm in data set [4] of 0.05. For the same compound, the LD10 in data set [5] was 7 mg/kg. The D40 in data set [7] came to 1.6 mg/kg.
Regarding `C[n+]1ccc(Nc2ccc(C(=O)Nc3ccc(Nc4cc[n+](C)c5ccc(N)cc45)c(N)c3)cc2)cc1.Cc1ccc(S(=O)(=O)[O-])cc1.Cc1ccc(S(=O)(=O)[O-])cc1`, the C50 in data set [1] worked out at 2.68 µM; in data set [3], 0.25 µM; in data set [6], 1.58 µM. Also, the “log(ILSmax)” value in data set [2] came out at 2.03. In data set [4], the Rm is given as -0.15. In data set [5], the LD10 amounted to 9 mg/kg. Besides, in data set [7], the D40 is 1.1 mg/kg.
Take `COc1cccc2c(Nc3ccc(C(=O)Nc4ccc(Nc5cc[n+](C)cc5)cc4)cc3)cc[n+](C)c12.[Br-].[Br-]`: the C50 in data set [1] stood at 1.62 µM; in data set [3], 0.16 µM; in data set [6], 0.76 µM. In data set [2], the “log(ILSmax)” value was determined as 2.14. The Rm in data set [4] is given as 0.3. In data set [5], this compound registered an LD10 of 6 mg/kg. Moreover, the D40 in data set [7] came to 0.3 mg/kg.
